From patent US11834448B2, “2-amino-quinoline derivatives” (BIRDIE BIOPHARMACEUTICALS, INC., priority 2017, dated 2023)

Experiments:
Human PBMCs [1] = test: Cytokine production in PBMCs: human IFN-α by ELISA; type: cell-based; parameters: key: ″+″ means that there was production of IFNa or IL-6 on PBMC; ″−″means that noproduction of IFNa or IL-6 on PBMC was detected; details: compounds tested at concentration of 10 uM; human PBMCs cultured 20-22 hours; supernatant ELISA
Method: (§1) The compound functionality was tested for some of the compounds prepared by stimulation and determination of cytokine production in PBMCs.
(§2) Human PBMCs were prepared from buffy coat obtained from healthy volunteer donor by Ficoll centrifugation and were adjusted to the final cell concentration to 1×10^6 cells/mL.
(§3) For evaluation of compound activities, 1×10^5 PBMCs were plated in a 96-well plate in 100 μl of RPMI 1640 complete medium (cat no. 31800-022, GIBCO by Life Technologies, Grand Island, NY, USA) supplemented with 10% fetal bovine serum, the tested compound was first dissolved in DMSO and further diluted in PBS and RPMI 1640 medium to the final concentration of […] (corresponding to 6.28 μg/mL), then 3-fold serially dilution was made in a 96-well round-bottom plate. 100 μl diluted compound was added to the same volume of 1×10^5 PBMCs plate and cultured for 20-22 hours at 37° C. in a humidified atmosphere of 5% CO2. The supernatant was collected for human IFN-α, IL12(p70) and IL-6 analysis by ELISA assay according to the manufacturer's instructions (Mabtech AB, Sweden). Resiquimod was used as a positive control.

Human PBMCs [2] = test: Cytokine production in PBMCs: human IL-6 by ELISA; type: cell-based; parameters: key: ″+″ means that there was production of IFNa or IL-6 on PBMC; ″−″means that noproduction of IFNa or IL-6 on PBMC was detected; details: compounds tested at concentration of 10 uM; human PBMCs cultured 20-22 hours; supernatant ELISA
Method: as §1, §2, §3

CCOCc1nc2c(N)nc3cccc(OC)c3c2n1CC(C)(C)O [Compound 1, 1-(4-amino-2-(ethoxymethyl)-9-methoxy-1H-imidazo[4,5-c]quinolin-1-yl)-2-methylpropan-2-ol]
Production of IFNa on PBMC (Human PBMCs [1]): +
Production of IL−6 on PBMC (Human PBMCs [2]): +

CCOCc1nc2c(N)nc3cccc(OC)c3c2n1CC(C)C [Compound 2, 2-(ethoxymethyl)-1-isobutyl-9-methoxy-1H-imidazo[4,5-c]quinolin-4-amine]
Production of IFNa on PBMC (Human PBMCs [1]): +
Production of IL−6 on PBMC (Human PBMCs [2]): +

COCCc1nc2c(N)nc3cccc(OC)c3c2n1CC(C)(C)O [Compound 3, 1-(4-amino-9-methoxy-2-(2-methoxyethyl)-1H-imidazo[4,5-c]quinolin-1-yl)-2-methylpropan-2-ol]
Production of IFNa on PBMC (Human PBMCs [1]): −
Production of IL−6 on PBMC (Human PBMCs [2]): −

COc1cccc2nc(N)c3nc(CCO)n(CC(C)(C)O)c3c12 [Compound 4, 1-(4-amino-2-(2-hydroxyethyl)-9-methoxy-1H-imidazo[4,5-c]quinolin-1-yl)-2-methylpropan-2-ol]
Production of IFNa on PBMC (Human PBMCs [1]): −
Production of IL−6 on PBMC (Human PBMCs [2]): −

CCOCc1nc2c(N)nc3cccc(OCCC(C)(C)O)c3c2[nH]1 [Compound 5, 4-((4-amino-2-(ethoxymethyl)-1H-imidazo[4,5-c]quinolin-9-yl)oxy)-2-methylbutan-2-ol]
Production of IFNa on PBMC (Human PBMCs [1]): +
Production of IL−6 on PBMC (Human PBMCs [2]): +

CCOCc1nc2c(N)nc3cccc(OCCC(C)C)c3c2[nH]1 [Compound 6, 2-(ethoxymethyl)-9-(isopentyloxy)-1H-imidazo[4,5-c]quinolin-4-amine]
Production of IL−6 on PBMC (Human PBMCs [2]): +

CCOCc1nc2c(N)nc3cccc(OCCC(C)O)c3c2[nH]1 (centres unmarked) [Compound 7, 4-((4-amino-2-(ethoxymethyl)-1H-imidazo[4,5-c]quinolin-9-yl)oxy)butan-2-ol]
Production of IL−6 on PBMC (Human PBMCs [2]): +

COCCc1nc2c(N)nc3cccc(OCCC(C)(C)O)c3c2[nH]1 [Compound 9, 4-((4-amino-2-(2-methoxyethyl)-1H-imidazo[4,5-c]quinolin-9-yl)oxy)-2-methylbutan-2-ol]
Production of IL−6 on PBMC (Human PBMCs [2]): +

CCOCc1nc2c(N)nc3cccc(OCCC(C)(C)O)c3c2n1C [Compound 10, 4-((4-amino-2-(ethoxymethyl)-1-methyl-1H-imidazo[4,5-c]quinolin-9-yl)oxy)-2-methylbutan-2-ol]
Production of IL−6 on PBMC (Human PBMCs [2]): +

CCOCc1nc2c(N)nc3cccc4c3c2n1[C@@H](C(C)(C)O)CO4 [Compound 40, (R)-2-(10-amino-2-(ethoxymethyl)-3,4-dihydro-5-oxa-1,2a,9-triazanaphtho[2,1,8-cde]azulen-3-yl)propan-2-ol]
Production of IL−6 on PBMC (Human PBMCs [2]): −

CCOCc1nc2c(N)nc3cccc4c3c2n1[C@H](C(C)(C)O)CO4 [Compound 41, (S)-2-(10-amino-2-(ethoxymethyl)-3,4-dihydro-5-oxa-1,2a,9-triazanaphtho[2,1,8-cde]azulen-3-yl)propan-2-ol]
Production of IL−6 on PBMC (Human PBMCs [2]): +

CCOCc1nc2c(N)nc3cccc4c3c2n1C[C@@](C)(O)CO4 [Compound 43, (R)-2-amino-12-(ethoxymethyl)-6-methyl-6,7-dihydro-5H-3,4-(azenometheno)[1,5]oxazocino[4,3,2-de]quinolin-6-ol]
Production of IL−6 on PBMC (Human PBMCs [2]): −

CCOCc1nc2c(N)nc3cccc4c3c2n1C[C@@H](O)CO4 [Compound 44, (R)-2-amino-12-(ethoxymethyl)-6,7-dihydro-5H-3,4-(azenometheno)[1,5]oxazocino[4,3,2-de]quinolin-6-ol]
Production of IL−6 on PBMC (Human PBMCs [2]): −

CCOCc1nc2c(N)nc3cccc4c3c2n1C[C@H](O)CO4 [Compound 45, (S)-2-amino-12-(ethoxymethyl)-6,7-dihydro-5H-3,4-(azenometheno)[1,5]oxazocino-[4,3,2-de]quinolin-6-ol]
Production of IL−6 on PBMC (Human PBMCs [2]): +

CCOCc1nc2c(N)nc3cccc4c3c2n1CC(=O)CO4 [Compound 46, 2-amino-12-(ethoxymethyl)-5H-3,4-(azenometheno)[1,5]oxazocino[4,3,2-de]quinolin-6(7H)-one]
Production of IL−6 on PBMC (Human PBMCs [2]): +
